As a reminder, the EC50 is the concentration giving half of the maximal effect.

In this test the target is AMPK. As to the kind of experiment: AMPK activation, enzyme-linked immunosorbent assay. In kind it is biochemical. The following applies: EC50 for AMPK activation, ELISA. Summed up: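 Compounds were tested for their capacity to activate the kinase using standard, commercially available kit reagents and procedures.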
Turning to `COc1ccc(C(=O)C2CCN(C(=O)c3ccc(C(=O)N[C@H]4CC[C@@H](Oc5ccc(C#N)cc5)CC4)nc3)CC2)cc1` [Compound 171, N-((cis)-4-(4-cyanophenoxy)cyclohexyl)-5-(4-(4-methoxybenzoyl)piperidine-1-carbonyl)picolinamide], the concentration for a half-maximal effect (EC50) was under 500 nM.
To `N#Cc1ccc(CN2CCC(C(=O)Nc3ccc(C(=O)N4CCC(Oc5ccc(F)cc5)CC4)cn3)CC2)cc1` [Compound 173, 1-(4-cyanobenzyl)-N-(5-(4-(4-fluorophenoxy)piperidine-1-carbonyl)pyridin-2-yl)piperidine-4-carboxamide] belongs under 500 nM; to `N#Cc1ccc(O[C@H]2CC[C@H](NC(=O)c3ccc(C(=O)N4CCC(C(=O)c5ccc(F)cc5)CC4)cn3)CC2)cc1` [Compound 168, N-((trans)-4-(4-cyanophenoxy)cyclohexyl)-5-(4-(4-fluorobenzoyl)piperidine-1-carbonyl)picolinamide], under 500 nM; to `N#Cc1ccc(CN2CCC(NC(=O)c3ccc(C(=O)N4CCC(Oc5cccc(NC(=O)C6CC6)c5)CC4)nc3)CC2)cc1` [Compound 431, N-(1-(4-cyanobenzyl)piperidin-4-yl)-6-(4-(3-(cyclopropanecarboxamido)phenoxy)piperidine-1-carbonyl)nicotinamide], 500 to 1000 nM.
Turning to `COc1ccc(CN2CCC(NC(=O)c3ccc(C(=O)N4CCC(C(=O)c5ccc(N6CCCC6)cc5)CC4)nc3)CC2)cc1` [Compound 439, N-(1-(4-methoxybenzyl)piperidin-4-yl)-6-(4-(4-(pyrrolidin-1-yl)benzoyl)piperidine-1-carbonyl)nicotinamide], the EC50 was under 500 nM.
To `N#Cc1ccc(CN2CCC(NC(=O)c3ccc(C(=O)N4CCC(Oc5ccc(S(F)(F)(F)(F)F)cc5)CC4)cn3)CC2)cc1` [Compound 492, N-(1-(4-cyanobenzyl)piperidin-4-yl)-5-(4-(4-(pentafluorosulfanyl)phenoxy)piperidine-1-carbonyl)picolinamide] belongs under 500 nM.
With `N#Cc1ccc(CN2CCC(NC(=O)c3ccc(NC4CCN(c5ccc(C#N)cc5)CC4)cn3)CC2)cc1` [Compound 267, N-(1-(4-cyanobenzyl)piperidin-4-yl)-5-(1-(4-cyanophenyl)piperidin-4-ylamino)picolinamide] the figure was under 500 nM; with `CS(=O)(=O)c1ccc(C(=O)C2CCN(C(=O)c3ccc(C(=O)NC4CCN(Cc5ccc(N6CCCC6)cc5)CC4)nc3)CC2)cc1` [Compound 233, 5-(4-(4-(methylsulfonyl)benzoyl)piperidine-1-carbonyl)-N-(1-(4-(pyrrolidin-1-yl)benzyl)piperidin-4-yl)picolinamide], under 500 nM; with `O=C(Nc1ccc(-c2ccccc2)cc1)c1ccc(C(=O)N2CCN(Cc3ccc(F)cc3)CC2)cn1` [Compound 11], under 500 nM.
To `N#Cc1ccc(CN2CCC(NC(=O)c3ccc(C(=O)N4CCC(C(=O)c5ccc(-n6cccn6)cc5)CC4)nc3)CC2)cc1` [Compound 393, 6-(4-(4-(1H-pyrazol-1-yl)benzoyl)piperidine-1-carbonyl)-N-(1-(4-cyanobenzyl)piperidin-4-yl)nicotinamide] belongs under 500 nM.
In the case of `COc1ccc(OC2CCN(C(=O)c3ccc(C(=O)NC4CCN(Cc5ccc(C#N)cc5)CC4)cn3)CC2)c(NC(C)=O)c1` [Compound 383, 6-(4-(2-acetamido-4-methoxyphenoxy)piperidine-1-carbonyl)-N-(1-(4-cyanobenzyl)piperidin-4-yl)nicotinamide], the 50% effective concentration (EC50) was over 10000 nM.
With `N#Cc1ccc(CN2CCC(NC(=O)c3ccc(C(=O)N4CCC(Oc5ccc(N)cc5)CC4)nc3)CC2)cc1` [Compound 364, 6-(4-(4-aminophenoxy)piperidine-1-carbonyl)-N-(1-(4-cyanobenzyl)piperidin-4-yl)nicotinamide] the figure was under 500 nM; with `COc1cccc(CC2CCN(C(=O)c3ccc(C(=O)NC4CCN(Cc5ccc(C#N)cc5)CC4)nc3)CC2)c1` [Compound 147, N-(1-(4-cyanobenzyl)piperidin-4-yl)-5-(4-(3-methoxybenzyl)piperidine-1-carbonyl)picolinamide], under 500 nM; with `COc1ccc(Oc2ccc(NC(=O)c3ccc(C(=O)N4CCN(Cc5ccc(F)cc5)CC4)cn3)cc2)cc1` [Compound 54, 5-(4-(4-fluorobenzyl)piperazine-1-carbonyl)-N-(4-(4-methoxyphenoxy)phenyl)picolinamide], under 500 nM.
To `COc1ccc(CN2CCC(NC(=O)c3ccc(C(=O)N4CCN(Cc5ccc(F)cc5)CC4)nc3)CC2)cc1` [Compound 327, 6-(4-(4-fluorobenzyl)piperazine-1-carbonyl)-N-(1-(4-methoxybenzyl)piperidin-4-yl)nicotinamide] belongs under 500 nM.
To `COc1ccc(OC2CCN(C(=O)c3ccc(C(=O)NC4CCN(Cc5cc(F)cc(F)c5)CC4)nc3)CC2)cc1` [Compound 296, N-(1-(3,5-difluorobenzyl)piperidin-4-yl)-5-(4-(4-methoxyphenoxy)piperidine-1-carbonyl)picolinamide] belongs under 500 nM.
`N#Cc1ccc(CN2CCC(NC(=O)c3ccc(C(=O)NCCOc4ccc(F)cc4)cn3)CC2)cc1` [Compound 149, N2-(1-(4-cyanobenzyl)piperidin-4-yl)-N5-(2-(4-fluorophenoxy)ethyl)pyridine-2,5-dicarboxamide] yielded an EC50 of 500 to 1000 nM.
With `N#Cc1ccc(CN2CCC(NC(=O)c3ccc(C(=O)N4CCC(Oc5ccc(S(F)(F)(F)(F)F)cc5)CC4)nc3)CC2)cc1` [Compound 493, N-(1-(4-cyanobenzyl)piperidin-4-yl)-6-(4-(4-(pentafluorosulfanyl)phenoxy)piperidine-1-carbonyl)nicotinamide] the figure was under 500 nM.
To `COc1ccc(C(=O)C2CCN(C(=O)c3ccc(C(=O)Nc4ccc(Oc5ccc(C#N)cc5)nc4)cn3)CC2)cc1` [Compound 460, N-(6-(4-cyanophenoxy)pyridin-3-yl)-6-(4-(4-methoxybenzoyl)piperidine-1-carbonyl)nicotinamide] belongs under 500 nM.
In the case of `COc1ccc(C(=O)C2CCN(C(=O)c3ccc(C(=O)NC4CCN(Cc5ccc(C(=O)N(C)C)cc5)CC4)cn3)CC2)cc1` [Compound 490, N-(1-(4-(dimethylcarbamoyl)benzyl)piperidin-4-yl)-6-(4-(4-methoxybenzoyl)piperidine-1-carbonyl)nicotinamide], the EC50 is 1000 to 5000 nM.
Compound `O=C(Nc1ccc(Oc2ccc(F)cc2)nc1)c1ccc(C(=O)N2CCC(C(=O)c3ccc(N4CCOCC4)cc3)CC2)cn1` [Compound 379, N-(6-(4-fluorophenoxy)pyridin-3-yl)-5-(4-(4-morpholinobenzoyl)piperidine-1-carbonyl)picolinamide] registered an EC50 of under 500 nM.
To `N#Cc1ccc(CN2CCC(NC(=O)c3ccc(C(=O)N4CCCC(Oc5ccc(C#N)cc5)C4)cn3)CC2)cc1` (centres unmarked) [Compound 137, N-(1-(4-cyanobenzyl)piperidin-4-yl)-5-(3-(4-cyanophenoxy)piperidine-1-carbonyl)picolinamide] belongs under 500 nM; to `COc1ccc(C(=O)C2CCN(C(=O)c3ccc(C(=O)Nc4ccc(Oc5ccc(F)cc5)nc4)cn3)CC2)cc1` [Compound 325, N-(6-(4-fluorophenoxy)pyridin-3-yl)-6-(4-(4-methoxybenzoyl)piperidine-1-carbonyl)nicotinamide], under 500 nM; to `CS(=O)(=O)c1ccc(OC2CCN(C(=O)c3ccc(C(=O)NC4CCC(Oc5ccc(C#N)cc5)CC4)cn3)CC2)cc1` (centres unmarked) [Compound 398, N-(4-(4-cyanophenoxy)cyclohexyl)-6-(4-(4-(methylsulfonyl)phenoxy)piperidine-1-carbonyl)nicotinamide], under 500 nM.
Compound `COc1ccc(OC2CCN(C(=O)c3ccc(C(=O)N[C@H]4CC[C@@H](Oc5ccc(C(F)(F)F)cc5)CC4)nc3)CC2)cc1` [Compound 191, 5-(4-(4-methoxyphenoxy)piperidine-1-carbonyl)-N-((cis)-4-(4-(trifluoromethyl)phenoxy)cyclohexyl) picolinamide] showed a concentration for a half-maximal effect (EC50) of under 500 nM.
To `CC(=O)c1ccc(Oc2ccc(NC(=O)c3ccc(C(=O)N4CCC(Oc5ccc(S(=O)(=O)C6CC6)cc5)CC4)nc3)cn2)cc1` [Compound 486, N-(6-(4-acetylphenoxy)pyridin-3-yl)-6-(4-(4-(cyclopropylsulfonyl)phenoxy)piperidine-1-carbonyl)nicotinamide] belongs under 500 nM.
`CS(=O)(=O)Nc1ccc(OC2CCN(C(=O)c3ccc(C(=O)NC4CCN(Cc5ccc(C#N)cc5)CC4)cn3)CC2)cc1` [Compound 367, N-(1-(4-cyanobenzyl)piperidin-4-yl)-6-(4-(4-(methylsulfonamido)phenoxy)piperidine-1-carbonyl)nicotinamide]: the EC50 is over 10000 nM.
With `CC(=O)c1ccc(Oc2ccc(NC(=O)c3ccc(C(=O)N4CCN(c5ccc(S(=O)(=O)C(C)C)cc5)CC4)nc3)cn2)cc1` [Compound 489, N-(6-(4-acetylphenoxy)pyridin-3-yl)-6-(4-(4-(isopropylsulfonyl)phenyl)piperazine-1-carbonyl)nicotinamide] the figure was under 500 nM; with `O=C(Nc1ccc(-c2ccccc2)cc1)c1ccc(C(=O)NC2CCN(Cc3ccccc3)CC2)nc1` [Compound 105, N2-(1-benzylpiperidin-4-yl)-N5-(biphenyl-4-yl)pyridine-2,5-dicarboxamide], over 10000 nM.
To `COc1ccc(C(=O)C2CCN(C(=O)c3ccc(C(=O)Nc4ccc(Oc5ccc(S(C)(=O)=O)cc5)nc4)cn3)CC2)cc1` [Compound 465, 6-(4-(4-methoxybenzoyl)piperidine-1-carbonyl)-N-(6-(4-(methylsulfonyl)phenoxy)pyridin-3-yl)nicotinamide] belongs under 500 nM; to `N#Cc1ccc(CN2CCC(NC(=O)c3ccc(C(=O)N4CCC(Oc5ccc(NS(=O)(=O)C6CC6)cc5)CC4)nc3)CC2)cc1` [Compound 448, N-(1-(4-cyanobenzyl)piperidin-4-yl)-6-(4-(4-(cyclopropanesulfonamido)phenoxy)piperidine-1-carbonyl)nicotinamide], 1000 to 5000 nM.
To `CCOC(=O)c1ccc(OC2CCN(C(=O)c3ccc(C(=O)NC4CCN(Cc5ccc(C#N)cc5)CC4)nc3)CC2)cc1` [Compound 284, ethyl 4-(1-(6-(1-(4-cyanobenzyl)piperidin-4-ylcarbamoyl)nicotinoyl)piperidin-4-yloxy)benzoate] belongs under 500 nM.

For the origin of these results see patent publication US9663496B2, “AMPK-activating heterocyclic compounds and methods for using the same” (Rigel Pharmaceuticals, Inc., priority 2010, dated 2017).
